SMILES strings stand for the structures. Some results are limits rather than exact numbers.

Broadly, the IC50 is the concentration that inhibits the measured activity by half. By Ki is commonly meant a measure of affinity in units of concentration, obtained from inhibition or displacement. High values mean lower affinity, low ones higher affinity.

One test concerns the target T1, Steryl-sulfatase (Homo sapiens, UniProt P08842).
T1 sequence (P08842 whole entry): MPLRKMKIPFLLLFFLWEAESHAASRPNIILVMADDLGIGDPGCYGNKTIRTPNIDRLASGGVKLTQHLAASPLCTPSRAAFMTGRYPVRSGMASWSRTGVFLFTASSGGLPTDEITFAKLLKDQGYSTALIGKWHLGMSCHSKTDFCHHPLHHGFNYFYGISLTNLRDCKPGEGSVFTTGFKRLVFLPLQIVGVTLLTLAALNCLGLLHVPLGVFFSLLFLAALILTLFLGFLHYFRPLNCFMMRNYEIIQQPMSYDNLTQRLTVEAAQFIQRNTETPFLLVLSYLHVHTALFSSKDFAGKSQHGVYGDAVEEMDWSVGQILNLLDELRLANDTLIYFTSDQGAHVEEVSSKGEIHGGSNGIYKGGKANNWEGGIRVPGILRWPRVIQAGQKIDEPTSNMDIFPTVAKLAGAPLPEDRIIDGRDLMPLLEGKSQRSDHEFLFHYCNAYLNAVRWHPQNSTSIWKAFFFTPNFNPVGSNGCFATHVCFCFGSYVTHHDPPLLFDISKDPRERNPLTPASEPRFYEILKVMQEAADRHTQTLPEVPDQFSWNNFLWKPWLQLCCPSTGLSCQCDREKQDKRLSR
The test is described as follows: Inhibition of estrone sulfatase in human JEG-3 cells using [3H]-estrone sulphate as substrate incubated for 1 hr by liquid scintillation counting method. Type of test: cell-based.
Turning to `COc1cccc(C[C@]2(O)CC[C@H]3[C@@H]4CCc5cc(OS(N)(=O)=O)ccc5[C@H]4CC[C@@]32C)c1`, the midpoint of inhibition, the IC50, lay at 30 nM.
On the same count and under the same terms, the value for `Cc1ccc(C[C@]2(O)CC[C@H]3[C@@H]4CCc5cc(OS(N)(=O)=O)ccc5[C@H]4CC[C@@]32C)cc1C` was 30 nM.
`C[C@]12CC[C@@H]3c4ccc(OS(N)(=O)=O)cc4CC[C@H]3[C@@H]1CC[C@@]2(O)Cc1ccc(O)cc1`: the IC50 worked out at 30 nM.
On to `COc1ccc(C[C@]2(O)CC[C@H]3[C@@H]4CCc5cc(OS(N)(=O)=O)ccc5[C@H]4CC[C@@]32C)c(OC)c1OC`, for which the IC50 is 30 nM.
Same read-out and setting: as for `C[C@]12CC[C@@H]3c4ccc(OS(N)(=O)=O)cc4CC[C@H]3[C@@H]1CC[C@@]2(O)Cc1cccc(Oc2ccccc2)c1`, the figure is 30 nM; as for `CC(C)c1ccc(C[C@]2(O)CC[C@H]3[C@@H]4CCc5cc(OS(N)(=O)=O)ccc5[C@H]4CC[C@@]32C)cc1`, 30 nM.
Same read-out and setting: as for `C[C@]12CC[C@@H]3c4ccc(OS(N)(=O)=O)cc4CC[C@H]3[C@@H]1CC[C@@]2(O)Cc1ccc(-c2ccccc2)cc1`, the figure is 30 nM; as for `COc1ccc(C[C@]2(O)CC[C@H]3[C@@H]4CCc5cc(OS(N)(=O)=O)ccc5[C@H]4CC[C@@]32C)cc1`, 30 nM; as for `Cc1ccc(C[C@]2(O)CC[C@H]3[C@@H]4CCc5cc(OS(N)(=O)=O)ccc5[C@H]4CC[C@@]32C)cc1`, 30 nM.
The same measure, in the same setting: as for `CC(C)(C)c1ccc(C[C@]2(O)CC[C@H]3[C@@H]4CCc5cc(OS(N)(=O)=O)ccc5[C@H]4CC[C@@]32C)cc1`, the figure is 30 nM; as for `COc1cc(C[C@]2(O)CC[C@H]3[C@@H]4CCc5cc(OS(N)(=O)=O)ccc5[C@H]4CC[C@@]32C)cc(OC)c1`, 30 nM.
Take `C[C@]12CC[C@@H]3c4ccc(OS(N)(=O)=O)cc4CC[C@H]3[C@@H]1CC[C@@]2(O)Cc1ccc(OCc2ccccc2)cc1`: the IC50 stood at 30 nM.

The target of a further test is T1, Steryl-sulfatase. Description: Inhibition of human placental microsomal estrone sulfatase using [3H]E1S as substrate incubated for 30 mins.
The molecule `C[C@]12CC[C@@H]3c4ccc(OS(N)(=O)=O)cc4CC[C@H]3[C@@H]1CC(=O)NC2=O` displayed an IC50 of 1 nM.
Same read-out and setting: the value for `CSc1cc2c(cc1OS(N)(=O)=O)CC[C@@H]1[C@@H]2CC[C@]2(C)C(=O)CC[C@@H]12` was 44 nM; that for `CCCCN1C(=O)C[C@H]2[C@@H]3CCc4cc(OS(N)(=O)=O)ccc4[C@H]3CC[C@]2(C)C1=O` was 1 nM.
Molecule `CSc1cc2c(cc1OS(N)(=O)=O)CC[C@@H]1[C@@H]2CC[C@]2(C)CCC[C@@H]12` gave an IC50 of 44 nM.
The molecule `C[C@]12CC[C@@H]3c4ccc(OS(N)(=O)=O)cc4CC[C@H]3[C@@H]1CC(=O)N(Cc1ccccc1)C2=O` returned an IC50 of 1 nM.
The same measure, in the same setting: the value for `CSc1cc2c(cc1OS(N)(=O)=O)CC[C@@H]1[C@@H]2CC[C@@]2(C)[C@H]1CC[C@@]2(O)Cc1ccc(C(C)(C)C)cc1` was 44 nM.
The molecule `CCCCCCN1C(=O)C[C@H]2[C@@H]3CCc4cc(OS(N)(=O)=O)ccc4[C@H]3CC[C@]2(C)C1=O` displayed an IC50 of 1 nM.
Still for that read-out and setting: as for `CC(C)(C)c1ccc(CN2C(=O)C[C@H]3[C@@H]4CCc5cc(OS(N)(=O)=O)ccc5[C@H]4CC[C@]3(C)C2=O)cc1`, the figure is 1 nM; as for `C=CCN1C(=O)C[C@H]2[C@@H]3CCc4cc(OS(N)(=O)=O)ccc4[C@H]3CC[C@]2(C)C1=O`, 1 nM; as for `CSc1cc2c(cc1OS(N)(=O)=O)CC[C@@H]1[C@@H]2CC[C@@]2(C)[C@H]1CC[C@@]2(O)Cc1ccccc1`, 44 nM.

A further test addresses T1, Steryl-sulfatase. Description: Inhibition of estrone sulfatase (unknown origin) transfected in HEK293 cells using [3H]E1S as substrate incubated for 2 hrs by liquid scintillation counting method. Type of test: cell-based.
Turning to `CC(C)(C)c1ccc(C[C@]2(O)CC[C@H]3[C@@H]4CC=C5CC(OS(N)(=O)=O)CC[C@]5(C)[C@H]4CC[C@@]32C)cc1` (stereo not given in full), the IC50 was 14 nM.
Same read-out and setting: as for `C[C@]12CC[C@H]3[C@@H](CC=C4CC(OS(N)(=O)=O)CC[C@@]43C)[C@@H]1CC[C@@H]2C(O)Cc1ccccc1` (stereo not given in full), the figure is 400 nM.
Turning to `C[C@]12CC[C@@H]3c4ccc(OS(N)(=O)=O)cc4CC[C@H]3[C@@H]1CC[C@@]2(O)Cc1ccccc1`, the IC50 came to 1.4 nM.
Same read-out and setting: the value for `C[C@]12CC[C@@H]3c4ccc(O)cc4CC[C@H]3[C@@H]1CC[C@@]2(O)Cc1ccc(-c2ccccc2C(F)(F)F)cc1` was 21 nM; that for `CC(C)(C)c1ccc(CC(O)[C@H]2CC[C@H]3[C@@H]4CC=C5CC(OS(N)(=O)=O)CC[C@]5(C)[C@H]4CC[C@]23C)cc1` (stereo not given in full) was 400 nM.

Another test addresses T1, Steryl-sulfatase. Description: Inhibition of estrone sulfatase (unknown origin) transfected in HEK293 cells using E1S as substrate. Type of test: cell-based.
Molecule `COc1cc2c(cc1OS(N)(=O)=O)CC[C@@H]1[C@@H]2CC[C@@]2(C)[C@H]1CC[C@@]2(O)Cc1ccc(C(C)(C)C)cc1` came in with an IC50 of 0.04 nM.
Consider `COc1cc2c(cc1OS(N)(=O)=O)CC[C@@H]1[C@@H]2CC[C@@]2(C)[C@H]1CC[C@@]2(O)Cc1ccccc1`, for which 0.024 nM corresponded to half-maximal inhibition (IC50).

The next test concerns the target T1, Steryl-sulfatase. Description: Inhibition of recombinant human estrone sulfatase expressed in CHO cells using 4-methylumbelliferyl sulfate as substrate by fluorimetric assay. Type of test: cell-based.
For `N#Cc1ccc2sc(C34CC5CC(CC(C5)C3)C4)cc(=O)c2c1`, the IC50 is > 180 nM.
Still for that read-out and setting: as for `O=C(CO)c1ccc2oc(C34CC5CC(CC(C5)C3)C4)cc(=O)c2c1`, the figure is > 180 nM; as for `O=c1cc(C23CC4CC(CC(C4)C2)C3)oc2ccc(CO)cc12`, > 180 nM; as for `O=C(O)C(=O)c1ccc2oc(C34CC5CC(CC(C5)C3)C4)cc(=O)c2c1`, > 180 nM.
For the molecule `COC(=O)c1ccc2oc(C34CC5CC(CC(C5)C3)C4)cc(=O)c2c1`, the IC50 is > 180 nM.
Still for that read-out and setting: as for `O=C(O)c1ccc2oc(C34CC5CC(CC(C5)C3)C4)cc(=O)c2c1`, the figure is > 180 nM; as for `NC(=O)c1ccc2oc(C34CC5CC(CC(C5)C3)C4)cc(=O)c2c1`, > 180 nM; as for `O=Cc1ccc2oc(C34CC5CC(CC(C5)C3)C4)cc(=O)c2c1`, > 180 nM.
On the same count and under the same terms, as for `O=C(O)Cc1ccc2oc(C34CC5CC(CC(C5)C3)C4)cc(=O)c2c1`, the figure is > 180 nM.

Another test addresses T1, Steryl-sulfatase. Description: Reversible inhibition of human estrone sulfatase using 4-methylumbelliferyl sulfate as substrate by fluorimetric assay.
Consider `C[C@]12CC[C@@H]3c4ccc(B(O)O)cc4CC[C@H]3[C@@H]1CC[C@@]2(O)Cc1ccccc1`, for which affinity was put at a Ki of 250 nM.
With `C[C@]12CC[C@@H]3c4ccc(B(O)O)cc4CC[C@H]3[C@@H]1CCC2=O`, the Ki worked out at 2800 nM.

The target in another test is T1, Steryl-sulfatase. The test is described as follows: Inhibition of placental microsomal estrone sulfatase (unknown origin) using [3H]-estrone sulphate as substrate incubated for 20 mins by scintillation counting method.
The molecule `NS(=O)(=O)Oc1ccc(C(=O)Cc2ccccc2)cc1` yielded an IC50 of 3400 nM.
Same read-out and setting: the value for `CCCC(=O)c1ccc(OS(N)(=O)=O)cc1` was 3400 nM.
The molecule `NS(=O)(=O)Oc1ccc(C(=O)/C=C/c2ccccc2)cc1` gave an IC50 of 3400 nM.
Consider `CCCCC(=O)c1ccc(OS(N)(=O)=O)cc1`, for which the IC50 stood at 3400 nM.
`NS(=O)(=O)Oc1ccc(C=O)cc1`: the IC50 was determined as 3400 nM.
Same read-out and setting: the value for `CC(=O)c1ccc(OS(N)(=O)=O)cc1` was 3400 nM.
Consider `CCCCCCCCCC(=O)c1ccc(OS(N)(=O)=O)cc1`, for which 3400 nM corresponded to half-maximal inhibition (IC50).
In turn, `CCCCCCCC(=O)c1ccc(OS(N)(=O)=O)cc1` gave an IC50 of 3400 nM.
The molecule `CCCCCCC(=O)c1ccc(OS(N)(=O)=O)cc1` came in with an IC50 of 3400 nM.

Another test deals with T1, Steryl-sulfatase. Description: Inhibition of recombinant human estrone sulfatase using 4-methylumbelliferyl sulfate as substrate by colorimetric assay.
As for `N#Cc1ccc2sc(C34CC5CC(CC(C5)C3)C4)cc(=O)c2c1`, the IC50 was > 530 nM.
Turning to `O=C(CO)c1ccc2oc(C34CC5CC(CC(C5)C3)C4)cc(=O)c2c1`, the IC50 was > 530 nM.
As to `O=c1cc(C23CC4CC(CC(C4)C2)C3)oc2ccc(CO)cc12`, the IC50 was > 530 nM.
Same read-out and setting: as for `O=C(O)C(=O)c1ccc2oc(C34CC5CC(CC(C5)C3)C4)cc(=O)c2c1`, the figure is > 530 nM; as for `COC(=O)c1ccc2oc(C34CC5CC(CC(C5)C3)C4)cc(=O)c2c1`, > 530 nM.
Take `O=C(O)c1ccc2oc(C34CC5CC(CC(C5)C3)C4)cc(=O)c2c1`: the IC50 is > 530 nM.
On to `NC(=O)c1ccc2oc(C34CC5CC(CC(C5)C3)C4)cc(=O)c2c1`, for which the IC50 was > 530 nM.
The same measure, in the same setting: as for `O=Cc1ccc2oc(C34CC5CC(CC(C5)C3)C4)cc(=O)c2c1`, the figure is > 530 nM.
Regarding `O=C(O)Cc1ccc2oc(C34CC5CC(CC(C5)C3)C4)cc(=O)c2c1`, the IC50 is > 530 nM.

The target of the next test is T1, Steryl-sulfatase. Description: Inhibition of human placental estrone sulfatase expressed in HEK293 cells using [3H]E1S as substrate incubated for 2 hrs by liquid scintillation counting method. It counts as cell-based.
On to `CCCCCCC(O)(CCCCc1ccc(OS(N)(=O)=O)cc1)Cc1ccc(C(C)(C)C)cc1` (stereo not given), for which half-maximal inhibition (IC50) was put at 0.4 nM.

The target in a further test is T1, Steryl-sulfatase. Description: Inhibition of human placental microsomal estrone sulfatase using 4-methylumbelliferyl sulfate as substrate incubated for 1 hr by fluorescence assay.
Regarding `NC(=O)c1ccc(C(F)(F)F)cc1N1CCc2nc(NS(=O)(=O)c3cc(C(F)(F)F)cc(C(F)(F)F)c3)sc2C1`, the IC50 is 160 nM.
